From patent publication US7786107B2, “Modulators of muscarinic receptors” (Vertex Pharmaceuticals Incorporated, priority 2006, dated 2010) come the findings set out here.

In one test the target is T1, M1 muscarinic receptor (Homo sapiens, UniProt P11229).
T1 construct: expressed in transfected cells; host or cells: CHO
T1 sequence (P11229 1-460): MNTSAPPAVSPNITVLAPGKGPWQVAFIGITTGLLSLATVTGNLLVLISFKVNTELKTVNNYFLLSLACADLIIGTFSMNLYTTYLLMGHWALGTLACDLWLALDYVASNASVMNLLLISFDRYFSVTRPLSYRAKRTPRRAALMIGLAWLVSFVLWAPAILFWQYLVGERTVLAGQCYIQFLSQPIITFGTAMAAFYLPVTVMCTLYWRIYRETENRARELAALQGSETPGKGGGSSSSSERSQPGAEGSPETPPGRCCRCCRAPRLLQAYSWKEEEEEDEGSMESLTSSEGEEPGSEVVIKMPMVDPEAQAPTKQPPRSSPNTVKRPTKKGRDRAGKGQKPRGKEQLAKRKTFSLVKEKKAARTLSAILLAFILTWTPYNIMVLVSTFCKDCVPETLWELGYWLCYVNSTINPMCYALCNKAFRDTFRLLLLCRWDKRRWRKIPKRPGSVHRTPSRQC
Briefly: Functional mobilization of intracellular calcium (FLIPR) in CHO cells expressing M1. In kind it is cell-based. The following applies: for EC50: CHO cells expressing M1, calcium mobilization; for Emax: CHO, 100% efficacy is the maximum response obtained with the Carbachol control. The protocol:
(§1) Functional Mobilization of Intracellular Calcium to Determine Muscarinic Receptor Activity:
(§2) CHO cells expressing muscarinic receptors (M1 to M5) are grown as monolayers in tissue culture flasks at 37° C. in a humidified atmosphere containing 5% CO2 and passaged every 3-5 days. The growth media is Dulbecco's modified eagles medium (DMEM, Gibco Cat#12430-054), containing 25 mM Hepes and supplemented with Fetal Bovine Serum (Hyclone, Cat#SH30071.03), 0.1 mM of MEM non-essential amino acids (GIBCO, Cat#11140-050), 1 mM MEM Sodium Pyruvate (GIBCO Cat#11360-070) and 100 units/ml of Penicillin G and 100 μg/ml of Streptomycin (GIBCO Cat#15140-122). The recombinant muscarinic receptor cell lines are grown under antibiotic pressure with media containing 25 μg/ml zeocin and 500 μg/ml G418 (MI-CHO), 4 μg/ml puromycin, 50 μg/ml zeocin and 2.5 μg/ml blasticidin (M2 and M4-CHO) or 50 μg/ml zeocin and 4 μg/ml puromycin (M3 and M5-CHO).
(§3) Cells are harvested at 80-90% confluence using Versene (GIBCO Cat#15040-066), collected by centrifugation and seeded 18-24 hours prior to running the calcium assay at a density of 5,000-10,000 cells/well in […], clear-bottomed 384-well plates (BD Biocoat, poly-D-lysine, Cat#356663). The day of the experiment, the cells are washed with a plate washer (Bioteck Instruments, ELX 405) using bath 1 buffer (140-mM NaCl, 4.5-mM KCl, 2-mM CaCl2, 1-mM MgCl2, 10-mM Hepes-Na, 10-mM Glucose, pH 7.4, with NaOH) containing 1 mM Probenecid. Next, the calcium dye Fluo-3 (25 μl well of Fluo-3 AM at 4 μM, Molecular Probes F-1241, in Bath 1 buffer containing 1 mM Probenecid) is added to the 25 μl of Bath 1 remaining in each well after the plate wash and the dye is loaded at 37° C. in the tissue culture incubator for 60-90 min. The fluorescent dye is removed using the plate washer with Bath 1 containing 1 mM Probenecid, leaving 25 μl/well of this solution after the wash. Alternatively, cells can be loaded with the calcium indicator from Molecular Devices (Calcium 3 Assay Reagents, Cat #R7181) adding 5 μl of a 5× solution dye in Bath 1 containing 1 mM Probenecid (10 ml per dye flask cat#R7182 to generate a solution 20×) to 20 μl of the same buffer. After loading for 60 min, the experiment can be run without having to remove the dye.
(§4) Compounds are prepared at a 2× fold concentration in a 96-well plate (round bottom, Costar Corning cat#3656), by reconstituting the pre-spotted compounds in bath 1 containing 1 mM probenecid. The final concentration DMSO is 0.5%, and the amount of DMSO is normalized across the assay plate. To determine an agonist action of the compounds on muscarinic receptors, the reconstituted compounds are added (25 μl compound/well) to the cell assay plate (containing 25 μl/well) using the multi-channel robotic system of the FLIPR 3 Instrument (Molecular Devices, Sunnyvale, Calif.). To determine a functional inhibitory action of the compounds on muscarinic receptors, the reconstituted compounds are added (25 μl compound/well) to the assay plate and pre-incubated for 15 min prior to adding 25 μl of Carbachol at 3× the EC80 for each muscarinic subtype. Alternatively, the compounds can be co-applied simultaneously with the agonist. In both assay modes, the fluorescence is recorded for 60 sec (excitation wavelength is […] and emission wavelength 540 nm) using the FLIPR 3 instrument.
(§5) The potency, efficacy and selectivity of the muscarinic compounds were evaluated by screening the compound activity across the whole family (M1 to M5 cells). Compounds were also screened for activity on other proteins such as other GPCRs and ion channels to determine selectivity on M4 receptors.
(§6) Examples of activities and efficacies of the muscarinic compounds of formulae (I, I-A, and I-B) on modulating M1 and M4 receptors are shown below in Table 4. […]

Another test concerns the target T2, M4 muscarinic receptor (Homo sapiens, UniProt P08173).
T2 construct: expressed in transfected cells; host or cells: CHO
T2 sequence (P08173 1-479): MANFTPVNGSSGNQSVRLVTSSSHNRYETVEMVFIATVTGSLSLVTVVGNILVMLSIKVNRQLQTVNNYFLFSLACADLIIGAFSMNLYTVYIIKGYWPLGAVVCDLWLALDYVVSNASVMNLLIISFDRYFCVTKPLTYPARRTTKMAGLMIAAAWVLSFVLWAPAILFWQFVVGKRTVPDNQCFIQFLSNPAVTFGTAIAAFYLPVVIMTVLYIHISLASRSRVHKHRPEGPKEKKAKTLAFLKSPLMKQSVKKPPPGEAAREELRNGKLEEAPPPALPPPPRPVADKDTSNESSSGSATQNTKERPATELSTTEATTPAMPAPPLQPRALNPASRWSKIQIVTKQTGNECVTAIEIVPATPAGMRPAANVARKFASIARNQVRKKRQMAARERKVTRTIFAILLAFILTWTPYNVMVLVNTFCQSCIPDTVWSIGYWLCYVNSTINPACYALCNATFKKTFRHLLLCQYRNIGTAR
Briefly: Functional mobilization of intracellular calcium (FLIPR) in CHO cells expressing M4. In kind it is cell-based. To be noted: for EC50: CHO cells expressing M4, calcium mobilization; for Emax: CHO, 100% efficacy is the maximum response obtained with the Carbachol control. The protocol: as §1, §2, §3, §4, §5, §6

As to `O=C1CCC2(CCN(C3C[C@@H]4CC[C@@H]3C4)CC2)c2ccccc2N1` (stereo partly shown) [Compound 1], the EC50 on M1 muscarinic receptor and at M4 muscarinic receptor was < 2 µM each time. Also, the figures for the Emax at M1 muscarinic receptor and at M4 muscarinic receptor were > 100% and 25 to 100%, respectively.
For the compound `NC(=O)N1CCCC2(CCN(CC3CC4C=CC3C4)CC2)c2ccccc21` (stereo not shown) [Compound 2], on M1 muscarinic receptor, the EC50 was 2 to 10 µM and the Emax was < 25%. In addition, at M4 muscarinic receptor, the EC50 is < 2 µM and the maximum response (Emax) was 25 to 100%.
On the same counts, the results for `CN1C(=O)CCC2(CCN(CCC(C)(C)C)CC2)c2ccccc21` [Compound 3] are 2 to 10 µM, 25 to 100%, < 2 µM and 25 to 100%.
On the same counts, the results for `CCOC(=O)N1C2CCC1CC(N1CCC3(CCC(=O)Nc4ccccc43)CC1)C2` (stereo not shown) [Compound 4] are < 2 µM, 25 to 100%, < 2 µM and 25 to 100%.
In the case of `O=C1CCC2(CCN(CC3CC4C=CC3C4)CC2)c2ccccc2N1` (stereo not shown) [Compound 5], at M1 muscarinic receptor, the EC50 fell in the range of 2 to 10 µM and the Emax lay in the range of 25 to 100%. Besides, at M4 muscarinic receptor, the EC50 was < 2 µM and the Emax fell in the range of 25 to 100%.
For `NC(=O)N1CCCC2(CCN(C3CCCCCC3)CC2)c2ccccc21` [Compound 6], on M1 muscarinic receptor, the EC50 is > 10 µM and the Emax is < 25%. In addition, on M4 muscarinic receptor, the EC50 is > 10 µM and the Emax was < 25%.
With `CC(=O)N1CCCC2(CCN(CC3CCCCC3)CC2)c2ccccc21` [Compound 7], on M1 muscarinic receptor, the EC50 is > 10 µM and the Emax is < 25%. On M4 muscarinic receptor, the EC50 lay in the range of 2 to 10 µM and the Emax was < 25%.
For the compound `CCOC(=O)N1CCC(N2CCC3(CCCN(C(N)=O)c4ccccc43)CC2)CC1` [Compound 8], at M1 muscarinic receptor, the EC50 is < 2 µM and the Emax lay in the range of 25 to 100%. For the same compound, at M4 muscarinic receptor, the EC50 lay within 2 to 10 µM and the Emax is 25 to 100%.
Take `CC(=O)N1CCCC2(CCN(CC3CC4C=CC3C4)CC2)c2ccccc21` (stereo not shown) [Compound 9]: the EC50 on M1 muscarinic receptor was > 10 µM; on M4 muscarinic receptor, < 2 µM. The results for the Emax on M1 muscarinic receptor and on M4 muscarinic receptor were < 25% and 25 to 100%, respectively.
On the same counts, the results for `CCOC(=O)N1C2CCC1CC(N1CCC3(CCCN(C(=O)N(C)C)c4ccccc43)CC1)C2` (stereo not shown) [Compound 10] are > 10 µM, 2 to 10 µM, < 25% and < 25%.
The matching figures for `CN(C)C(=O)N1CCCC2(CCN(C3CCCCCC3)CC2)c2ccccc21` [Compound 11]: > 10 µM, > 10 µM, < 25% and < 25%.
The matching figures for `CN1C(=O)CCC2(CCN(C3CCCCCC3)CC2)c2ccccc21` [Compound 12]: 2 to 10 µM, < 2 µM, 25 to 100% and 25 to 100%.
Turning to `CC(C)(C)CCN1CCC2(CCCN(C(N)=O)c3ccccc32)CC1` [Compound 13], the EC50 at M1 muscarinic receptor was 2 to 10 µM; at M4 muscarinic receptor, < 2 µM. The Emax at M1 muscarinic receptor and at M4 muscarinic receptor was 25 to 100% in each case.
Turning to `CCOC(=O)N1CCC(N2CCC3(CCCN(C(C)=O)c4ccccc43)CC2)CC1` [Compound 14], at M1 muscarinic receptor, the EC50 was < 2 µM and the Emax lay within 25 to 100%. For the same compound, on M4 muscarinic receptor, the EC50 is < 2 µM and the Emax was in the range of 25 to 100%.
On to `CN(C)C(=O)N1CCCC2(CCN(CC3CC4C=CC3C4)CC2)c2ccccc21` (stereo not shown) [Compound 15], for which, on M1 muscarinic receptor, the EC50 is > 10 µM and the Emax is < 25%. Besides, on M4 muscarinic receptor, the EC50 is < 2 µM and the Emax lay within 25 to 100%.
Regarding `NC(=O)N1CCCC2(CCN(C3CC4CCC(C4)C3)CC2)c2ccccc21` (stereo not shown) [Compound 16], the values for the EC50 on M1 muscarinic receptor and at M4 muscarinic receptor were 2 to 10 µM and < 2 µM, respectively. The Emax on M1 muscarinic receptor and on M4 muscarinic receptor was 25 to 100% throughout.
